Measurements from patent US12539312B2, “Use of materials made of cross-linked β-cyclodextrins for the treatment of tuberculosis” (INSERM (INSTITUT NATIONAL DE LA SANTÉ ET DE LA RECHERCHE …, priority 2019, dated 2026).

Columns and labels:
[1] = tested on: Mtb H37Rv; test: Lung mycobacterial load in Mtb-challenged mice (CFU counting); assay type: in vivo, Mycobacterium tuberculosis; settings: Booster co-loaded with ETH in pβCD
[2] = tested on: BMDM; test: Apoptosis/necrosis assay (Annexin V and DNA intercalating dye); assay type: cell-based, murine; settings: 24 hours incubation
[3] = Phase solubility study, Booster; settings: 1:1 stoichiometry assumed; BDM43266 per FIG. 2B
[4] = Phase solubility study, ETH; settings: 1:1 stoichiometry assumed, from phase solubility diagram

SMILES | boosting efficacy on ETH [1] | Annexin V / DNA intercalating dye staining [2] | K1:1 (binding constant) in the case of Booster [3] | K1:1 (binding constant) in the case of ETH [4]
O=C(CCCC(F)(F)F)N1CCC(c2nc(-c3nccs3)no2)CC1 [BDM41906] | No difference was observed concerning the boosting efficacy between BDM41906 and BDM43266 | – | – | –
CN[C@@H]1C[C@H]2O[C@@](C)([C@@H]1OC)n1c3ccccc3c3c4c(c5c6ccccc6n2c5c31)C(=O)NC4 [staurosporine] | – | late apoptotic, double positive cells | – | –
OC[C@H]1O[C@@H]2O[C@H]3[C@H](O)[C@@H](O)[C@@H](O[C@H]4[C@H](O)[C@@H](O)[C@@H](O[C@H]5[C@H](O)[C@@H](O)[C@@H](O[C@H]6[C@H](O)[C@@H](O)[C@@H](O[C@H]7[C@H](O)[C@@H](O)[C@@H](O[C@H]1[C@H](O)[C@H]2O)O[C@@H]7CO)O[C@@H]6CO)O[C@@H]5CO)O[C@@H]4CO)O[C@@H]3CO [αCD, α-cyclodextrin] | – | – | 100 | 24
OC[C@H]1O[C@@H]2O[C@H]3[C@H](O)[C@@H](O)[C@@H](O[C@H]4[C@H](O)[C@@H](O)[C@@H](O[C@H]5[C@H](O)[C@@H](O)[C@@H](O[C@H]6[C@H](O)[C@@H](O)[C@@H](O[C@H]7[C@H](O)[C@@H](O)[C@@H](O[C@H]8[C@H](O)[C@@H](O)[C@@H](O[C@H]1[C@H](O)[C@H]2O)O[C@@H]8CO)O[C@@H]7CO)O[C@@H]6CO)O[C@@H]5CO)O[C@@H]4CO)O[C@@H]3CO [βCD, β-Cyclodextrin] | – | – | 514 | 100
OC[C@H]1O[C@@H]2O[C@H]3[C@H](O)[C@@H](O)[C@@H](O[C@H]4[C@H](O)[C@@H](O)[C@@H](O[C@H]5[C@H](O)[C@@H](O)[C@@H](O[C@H]6[C@H](O)[C@@H](O)[C@@H](O[C@H]7[C@H](O)[C@@H](O)[C@@H](O[C@H]8[C@H](O)[C@@H](O)[C@@H](O[C@H]9[C@H](O)[C@@H](O)[C@@H](O[C@H]1[C@H](O)[C@H]2O)O[C@@H]9CO)O[C@@H]8CO)O[C@@H]7CO)O[C@@H]6CO)O[C@@H]5CO)O[C@@H]4CO)O[C@@H]3CO [γCD, γ-cyclodextrin] | – | – | 256 | 47
